Results published in PubChem BioAssay AID2060485 (Molecular Pharmacology Branch, DTP, NCI, 2025).

Test system: A375 multi-cell spheroids with HUVEC/MSC, viability
Test: Anticancer human tumor A375 cell line growth inhibition [GQUAD];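 further: spheroids exposed to compounds for seven days before readout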
Settings: for IC50: curve of first compound; for viability, T/C: stronger effect = lower value
Text: DNA G-quadruplex Stabilizer Agents in Combinations in Complex Spheroids
A high-throughput screen of multi-cell type tumor spheroids was designed to identify active combinations of DNA G-quadruplex stabilizer agents and targeted small molecules. Complex spheroids include a stromal component modeled by human endothelial cells (HUVEC) and fibroblasts modeled by human mesenchymal stem cells (MSCs). The concentration ranges selected for each drug and investigational agent were based upon clinically achievable concentrations if the clinical Cmax of the agent was known.
Compounds. The drugs and investigational agents: pidnarulex (CX-5461; NSC782164), APTO-253 (NSC789042), BRACO-19 (NSC847499), peposertib (NSC802822), ceralasertib (NSC780249), elimusertib (NSC800525), camonsertib (NSC841442), AZD-1390 (NSC803789), olaparib (NSC753686), talazoparib (NSC767125), ART-558 (NSC835418), sotorasib (NSC818433), MRTX-1133 (NSC836407), SN-38 (NSC673596), topotecan (NSC609699), etoposide (NSC141540), doxorubicin (NSC123127), gemcitabine (NSC613327), 5-fluorouracil (NSC19893), paclitaxel (NSC125973), vemurafenib (NSC761431), panobinostat (NSC761190), R-306465 (JNJ-16241199; NSC773264), adavosertib (NSC754352), TP-3654 (NSC805149), carboplatin (NSC241240), KSQ-4279 (NSC840948), and staurosporine (NSC755774) were obtained from the National Cancer Institute (NCI) Developmental Therapeutics Program Chemical Repository (34). The FDA-approved anticancer drug set is available from the NCI Developmental Therapeutics Program. […] The stock solutions were prepared in dimethyl sulfoxide (DMSO, Sigma-Aldrich, St. Louis, MO, cat. D2650) at 800-fold the tested concentration and stored at -70 degrees C prior to their use. All drugs and investigational agents were tested over a range starting from a high concentration at or near the clinical Cmax and decreasing in half-log increments. If the clinical Cmax for an agent had not been determined, the highest concentration tested was 10 microM.
2.3 Cell Culture. All cells were maintained in an incubator at 37 degrees C and 5% CO2 with 95% humidity. The PDC lines were cultured according to standard operating procedures established by the NCI PDMR. All PDCs were thawed and cultured in Matrigel-coated flasks prepared with a working solution of 1X Ham's F-12 nutrient mix, without supplementation (Invitrogen, cat. 11765054), 100 U/mL penicillin-streptomycin (Invitrogen, cat. 15140122), and 2.5% Matrigel (Corning Inc., cat. 354248) for the first three passages. The 857933-349-R-J2-PDC line was cultured in 6C/Colon 1B media, which includes advanced DMEM/F-12 (Thermo Fisher Scientific, cat. 12634028), 10 mM HEPES (Thermo Fisher Scientific, cat. 15630080), 1X GlutaMAX supplement (Thermo Fisher Scientific, cat. 35050061), 0.1 mg/mL primocin (InvivoGen, cat. ant-pm-2), 10% defined fetal bovine serum, heat inactivated (HyClone Laboratories Inc., cat. SH30070.03HI), 50% L-WRN conditioned media (ATCC, cat. CRL-3276), 1.25 mM N-Acetyl-L-cysteine (Sigma-Aldrich, cat. A9165), 10 mM nicotinamide (Sigma-Aldrich, cat. N0636), 1X B-27 supplement (Thermo Fisher Scientific, cat. 17504044), 1X N-2 supplement (Thermo Fisher Scientific, cat. 17502048), 10 microM Y-27632 dihydrochloride (Tocris Bioscience, cat. 1254), and 50 ng/mL human EGF recombinant protein (Thermo Fisher Scientific, cat. PHG0311). The 485176-168-R4-J1-PDC line was cultured in Panc media, which includes all 6C/Colon 1B media components plus 100 ng/mL human FGF-10 (Thermo Fisher Scientific, cat. 100-26), 500 nM SB-431542 (Selleckchem, cat. S1067), and gastrin (Tocris, cat. 3006).
[…]

[1] = second compound 0.0316 µM, first compound 0.0316 µM
[2] = second compound 0.0316 µM, first compound 0.316 µM
[3] = second compound 0.1 µM, first compound 0.0316 µM
[4] = second compound 0.1 µM, first compound 0.316 µM
[5] = second compound 0.316 µM, first compound 0.0316 µM
[6] = second compound 0.316 µM, first compound 0.316 µM
[7] = second compound 1 µM, first compound 0.0316 µM
[8] = second compound 1 µM, first compound 0.316 µM
[9] = second compound 3.16 µM, first compound 0.0316 µM
[10] = second compound 3.16 µM, first compound 0.316 µM
[11] = second compound 10 µM, first compound 0.0316 µM
[12] = second compound 10 µM, first compound 0.316 µM

SMILES: Cc1cccc(N(C)C(=O)C2C(O)CCN2c2nc(C)cc(C(F)(F)F)c2C#N)c1 (centres undefined) + CN(C)c1ccc(Nc2c3ccc(NC(=O)CCN4CCCC4)cc3nc3cc(NC(=O)CCN4CCCC4)ccc23)cc1
- IC50 (second compound 0.0316 µM): > 10 µM
- IC50 (second compound 0.1 µM): > 10 µM
- IC50 (second compound 0.316 µM): > 10 µM
- IC50 (second compound 1 µM): > 10 µM
- IC50 (second compound 3.16 µM): > 10 µM
- IC50 (second compound 10 µM): > 10 µM
- viability, T/C [1]: 103%
- viability, T/C (second compound 0.0316 µM, first compound 0.1 µM): 98.6%
- viability, T/C [2]: 104%
- viability, T/C (second compound 0.0316 µM, first compound 1 µM): 105%
- viability, T/C (second compound 0.0316 µM, first compound 3.16 µM): 105%
- viability, T/C (second compound 0.0316 µM, first compound 10 µM): 102%
- viability, T/C [3]: 113%
- viability, T/C (second compound 0.1 µM, first compound 0.1 µM): 104%
- viability, T/C [4]: 99.8%
- viability, T/C (second compound 0.1 µM, first compound 1 µM): 97%
- viability, T/C (second compound 0.1 µM, first compound 3.16 µM): 107%
- viability, T/C (second compound 0.1 µM, first compound 10 µM): 102%
- viability, T/C [5]: 113%
- viability, T/C (second compound 0.316 µM, first compound 0.1 µM): 101%
- viability, T/C [6]: 101%
- viability, T/C (second compound 0.316 µM, first compound 1 µM): 109%
- viability, T/C (second compound 0.316 µM, first compound 3.16 µM): 99.1%
- viability, T/C (second compound 0.316 µM, first compound 10 µM): 95.7%
- viability, T/C [7]: 107%
- viability, T/C (second compound 1 µM, first compound 0.1 µM): 98.3%
- viability, T/C [8]: 97.3%
- viability, T/C (second compound 1 µM, first compound 1 µM): 96.9%
- viability, T/C (second compound 1 µM, first compound 3.16 µM): 104%
- viability, T/C (second compound 1 µM, first compound 10 µM): 97.3%
- viability, T/C [9]: 117%
- viability, T/C (second compound 3.16 µM, first compound 0.1 µM): 106%
- viability, T/C [10]: 93.9%
- viability, T/C (second compound 3.16 µM, first compound 1 µM): 101%
- viability, T/C (second compound 3.16 µM, first compound 3.16 µM): 98%
- viability, T/C (second compound 3.16 µM, first compound 10 µM): 100%
- viability, T/C [11]: 95.7%
- viability, T/C (second compound 10 µM, first compound 0.1 µM): 96.3%
- viability, T/C [12]: 89.9%
- viability, T/C (second compound 10 µM, first compound 1 µM): 93.7%
- viability, T/C (second compound 10 µM, first compound 3.16 µM): 96.5%
- viability, T/C (second compound 10 µM, first compound 10 µM): 74.3%

SMILES: Cn1ncnc1[C@H]1c2n[nH]c(=O)c3cc(F)cc(c23)N[C@@H]1c1ccc(F)cc1 + CN(C)c1ccc(Nc2c3ccc(NC(=O)CCN4CCCC4)cc3nc3cc(NC(=O)CCN4CCCC4)ccc23)cc1
- IC50 (second compound 0.0316 µM): > 0.316 µM
- IC50 (second compound 0.1 µM): > 0.316 µM
- IC50 (second compound 0.316 µM): > 0.316 µM
- IC50 (second compound 1 µM): > 0.316 µM
- IC50 (second compound 3.16 µM): > 0.316 µM
- IC50 (second compound 10 µM): > 0.316 µM
- viability, T/C (second compound 0.0316 µM, first compound 0.000999 µM): 96.8%
- viability, T/C (second compound 0.0316 µM, first compound 0.00316 µM): 104%
- viability, T/C (second compound 0.0316 µM, first compound 0.00999 µM): 105%
- viability, T/C [1]: 104%
- viability, T/C (second compound 0.0316 µM, first compound 0.0999 µM): 105%
- viability, T/C [2]: 97.1%
- viability, T/C (second compound 0.1 µM, first compound 0.000999 µM): 102%
- viability, T/C (second compound 0.1 µM, first compound 0.00316 µM): 102%
- viability, T/C (second compound 0.1 µM, first compound 0.00999 µM): 97.2%
- viability, T/C [3]: 101%
- viability, T/C (second compound 0.1 µM, first compound 0.0999 µM): 103%
- viability, T/C [4]: 84.7%
- viability, T/C (second compound 0.316 µM, first compound 0.000999 µM): 115%
- viability, T/C (second compound 0.316 µM, first compound 0.00316 µM): 93.6%
- viability, T/C (second compound 0.316 µM, first compound 0.00999 µM): 101%
- viability, T/C [5]: 110%
- viability, T/C (second compound 0.316 µM, first compound 0.0999 µM): 107%
- viability, T/C [6]: 98.8%
- viability, T/C (second compound 1 µM, first compound 0.000999 µM): 111%
- viability, T/C (second compound 1 µM, first compound 0.00316 µM): 105%
- viability, T/C (second compound 1 µM, first compound 0.00999 µM): 101%
- viability, T/C [7]: 110%
- viability, T/C (second compound 1 µM, first compound 0.0999 µM): 116%
- viability, T/C [8]: 110%
- viability, T/C (second compound 3.16 µM, first compound 0.000999 µM): 107%
- viability, T/C (second compound 3.16 µM, first compound 0.00316 µM): 98%
- viability, T/C (second compound 3.16 µM, first compound 0.00999 µM): 99.8%
- viability, T/C [9]: 105%
- viability, T/C (second compound 3.16 µM, first compound 0.0999 µM): 106%
- viability, T/C [10]: 106%
- viability, T/C (second compound 10 µM, first compound 0.000999 µM): 98.3%
- viability, T/C (second compound 10 µM, first compound 0.00316 µM): 97.5%
- viability, T/C (second compound 10 µM, first compound 0.00999 µM): 97.1%
- viability, T/C [11]: 107%
- viability, T/C (second compound 10 µM, first compound 0.0999 µM): 104%
- viability, T/C [12]: 97.9%
